The values that follow come from ChEMBL document CHEMBL1201862, “PubChem BioAssay data set” (2004).

Test systems include A498; CCRF-CEM; COLO 205; HCT-116; HCT-15; HT-29; IGROV-1; M14; MOLT-4; NCI-H23; NCI-H460; NCI-H522; NCI/ADR-RES; OVCAR-3; OVCAR-5; RXF 393; SK-OV-3; SNB-19; SW-620.
What all share (assay): NCI-60 cell line screen, 48 h

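Test compounds were applied to cells in 96-well plates for 48 hours at 5 doses. The concentration for 50% growth inhibition is given as GI50.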 The source made the active and inactive calls. Rule as the data show it: active = GI50 up to about 1.1 µM and inactive = higher.

For `C=CS(=O)(=O)c1c2cc(OC)ccc2nc2ccc(OC)cc12`, the GI50 is 12.7 µM (inactive) in the test on A498; 3.22 µM (inactive) with CCRF-CEM; 4.34 µM (inactive) in the test on COLO 205; 2.11 µM (inactive) with HCT-116; 3.31 µM in the test on HCT-15; 2.54 µM (inactive) with HT-29. Moreover, the GI50 in the test with IGROV-1 was 2.92 µM (inactive); in the test with M14, 7.46 µM (inactive); with MOLT-4, 2.32 µM (inactive); in the test on NCI-H23 it was 4.02 µM (inactive); in the test with NCI-H460, 5.12 µM (inactive); in the test with NCI-H522 it was 1.73 µM (inactive). Besides, the GI50 with NCI/ADR-RES is 10.4 µM (inactive); in the test with OVCAR-3, 2.82 µM (inactive); in the test on OVCAR-5, 6.14 µM (inactive); in the test with RXF 393 it was 3.99 µM (inactive); in the test with SK-OV-3 it was 17.7 µM (inactive); in the test with SNB-19, 12.6 µM (inactive). Also, the GI50 in the test on SW-620 was 3.12 µM (inactive).
In the case of `Clc1nc(Cl)nc(Nc2cccc3ccccc23)n1`, the GI50 with A498 is > 10 µM (inactive); in the test with CCRF-CEM, > 10 µM (inactive); in the test on COLO 205, > 10 µM (inactive); with HCT-116, > 10 µM (inactive); in the test on HCT-15 it was above 10 µM; with HT-29, > 10 µM (inactive). In addition, the GI50 in the test on IGROV-1, in the test on M14, with MOLT-4, in the test with NCI-H23, in the test on NCI-H460 and in the test on NCI-H522 was > 10 µM (inactive) in each case. In addition, the GI50 with NCI/ADR-RES was > 10 µM (inactive); in the test with OVCAR-3, 0.0436 µM (active); in the test on OVCAR-5 it was > 10 µM (inactive); in the test on RXF 393 it was > 10 µM (inactive); in the test on SK-OV-3, > 10 µM (inactive); in the test with SNB-19 it was > 10 µM (inactive). Moreover, in the test on SW-620, the GI50 is > 10 µM (inactive).
Regarding `C=CCOC1=C(OCC=C)C(C2COC(C)(C)O2)OC1=O` (stereo not drawn), the GI50 is > 100 µM (inactive) in the test on A498; 29.4 µM (inactive) in the test on CCRF-CEM; > 100 µM (inactive) in the test on COLO 205; > 100 µM (inactive) in the test with HCT-116; above 100 µM in the test with HCT-15; > 100 µM (inactive) in the test on HT-29. For the same compound, the GI50 in the test with IGROV-1 was > 100 µM (inactive); with M14 it was > 100 µM (inactive); with MOLT-4, > 100 µM (inactive); in the test on NCI-H23, > 100 µM (inactive); with NCI-H460 it was > 100 µM (inactive); in the test with NCI-H522 it was 22.1 µM (inactive). Moreover, the GI50 with NCI/ADR-RES, with OVCAR-3, in the test with OVCAR-5, in the test with RXF 393, in the test with SK-OV-3 and with SNB-19 was > 100 µM (inactive) in each case. Further, the GI50 with SW-620 is > 100 µM (inactive).
In the case of `Fc1ccc(C(OCCN2CCC3CCC(C2)N3Cc2cc3ccccc3[nH]2)c2ccc(F)cc2)cc1` (stereo not drawn), the GI50 with A498 was 1.47 µM (inactive); in the test on CCRF-CEM it was 1.71 µM (inactive); in the test on COLO 205, 0.962 µM (active); with HCT-116, 1.33 µM (inactive); in the test with HCT-15, 1.15 µM; in the test on HT-29, 1.08 µM (active). Also, the GI50 in the test with IGROV-1 is 1.38 µM (inactive); in the test on M14, 1.6 µM (inactive); in the test on MOLT-4, 1.35 µM (inactive); with NCI-H23 it was 1.58 µM (inactive); in the test on NCI-H460 it was 1.78 µM (inactive); in the test on NCI-H522, 1.47 µM (inactive). The GI50 in the test on NCI/ADR-RES is 1.57 µM (inactive); in the test on OVCAR-3, 1.77 µM (inactive); in the test on OVCAR-5, 1.74 µM (inactive); with RXF 393, 1.59 µM (inactive); with SK-OV-3, 2.33 µM (inactive); with SNB-19, 2.54 µM (inactive). The GI50 in the test with SW-620 is 1.56 µM (inactive).
For `O=C1CCCCC[C@]12SC[C@H]1CON=C12`, the GI50 with A498 was 7.16 µM (inactive); with CCRF-CEM it was 21.9 µM (inactive); in the test on COLO 205 it was 29.2 µM (inactive); in the test with HCT-116, 35.2 µM (inactive); in the test on HCT-15, 31.3 µM; in the test with HT-29 it was 38.3 µM (inactive). In addition, the GI50 is 47.5 µM (inactive) in the test with IGROV-1; 22.3 µM (inactive) in the test on M14; 36.3 µM (inactive) in the test with MOLT-4; 94.8 µM (inactive) in the test on NCI-H23; 39.1 µM (inactive) in the test with NCI-H460; 22.6 µM (inactive) in the test with NCI-H522. Also, the GI50 is 25.9 µM (inactive) in the test on NCI/ADR-RES; 89.7 µM (inactive) with OVCAR-3; > 100 µM (inactive) in the test with OVCAR-5; 21.1 µM (inactive) in the test on RXF 393; 37.4 µM (inactive) in the test on SK-OV-3; > 100 µM (inactive) in the test with SNB-19. For the same compound, the GI50 with SW-620 was 50.8 µM (inactive).
As to `O=C1NCN(c2ccccc2)C12CCN(CCCN1CCN(CCOC(c3ccc(F)cc3)c3ccc(F)cc3)CC1)CC2`, the GI50 in the test on A498 was 1.84 µM (inactive); in the test with CCRF-CEM it was 3.31 µM (inactive); in the test on COLO 205 it was 1.52 µM (inactive); in the test on HCT-116, 1.7 µM (inactive); with HCT-15, 2.23 µM; with HT-29, 1.26 µM (inactive). In addition, the GI50 in the test with IGROV-1 is 1.98 µM (inactive); with M14 it was 1.88 µM (inactive); in the test on MOLT-4 it was 3.15 µM (inactive); in the test on NCI-H23, 3.51 µM (inactive); with NCI-H460, 2 µM (inactive); in the test on NCI-H522, 1.9 µM (inactive). Moreover, the GI50 is 11 µM (inactive) in the test on NCI/ADR-RES; 2.03 µM (inactive) in the test on OVCAR-3; 3.15 µM (inactive) in the test on OVCAR-5; 1.04 µM (active) with RXF 393; 2.22 µM (inactive) with SK-OV-3; 2.72 µM (inactive) in the test with SNB-19. In the test with SW-620, the GI50 was 2.61 µM (inactive).
For the compound `CC1(C)C(=O)c2ccccc2OC1N1CCN(C2Oc3ccccc3C(=O)C2(C)C)CC1` (stereo not drawn), the GI50 with A498 was 24.5 µM (inactive); with CCRF-CEM, > 100 µM (inactive); with COLO 205, > 100 µM (inactive); with HCT-116, 82.4 µM (inactive); in the test with HCT-15, above 100 µM; in the test with HT-29, > 100 µM (inactive). The GI50 in the test with IGROV-1, in the test with M14, in the test on MOLT-4, in the test on NCI-H23, in the test with NCI-H460 and in the test on NCI-H522 was > 100 µM (inactive) throughout. Also, the GI50 with NCI/ADR-RES was > 100 µM (inactive); in the test with OVCAR-3, > 100 µM (inactive); with OVCAR-5, > 100 µM (inactive); in the test with RXF 393 it was 48.1 µM (inactive); in the test with SK-OV-3, > 100 µM (inactive); with SNB-19, > 100 µM (inactive). Moreover, in the test with SW-620, the GI50 is > 100 µM (inactive).
`O=C1NCN(c2ccccc2)C12CCN(CCCSc1ccc(F)cc1)CC2`: the GI50 in the test with A498 was 11.4 µM (inactive); in the test with CCRF-CEM, 7 µM (inactive); in the test on COLO 205, 1.51 µM (inactive); in the test with HCT-116, 5.09 µM (inactive); with HCT-15, 31.1 µM; with HT-29, 3.85 µM (inactive). The GI50 is 9.1 µM (inactive) in the test with IGROV-1; 6.25 µM (inactive) with M14; 12.2 µM (inactive) with MOLT-4; 27.7 µM (inactive) in the test on NCI-H23; 13 µM (inactive) in the test on NCI-H460; > 83.9 µM (inactive) with NCI-H522. The GI50 was > 48 µM (inactive) in the test on NCI/ADR-RES; 55.6 µM (inactive) in the test on OVCAR-3; 16.9 µM (inactive) in the test with OVCAR-5; > 42 µM (inactive) in the test on RXF 393; > 100 µM (inactive) in the test with SK-OV-3; 97.3 µM (inactive) with SNB-19. The GI50 in the test on SW-620 is > 49.1 µM (inactive).
Take `Nc1nc(N)c2c(n1)NC(=O)c1c(c3ccccc3n1Cc1ccc(Cl)cc1)C2`: the GI50 in the test on A498 was 16 µM (inactive); in the test on CCRF-CEM, 17.7 µM (inactive); in the test on COLO 205, 16 µM (inactive); in the test on HCT-116, 23.6 µM (inactive); in the test on HCT-15, 17 µM; with HT-29, 31.3 µM (inactive). Moreover, the GI50 was 29.6 µM (inactive) with IGROV-1; 37.8 µM (inactive) with M14; 6.56 µM (inactive) in the test with MOLT-4; > 100 µM (inactive) with NCI-H23; 18.2 µM (inactive) with NCI-H460; 26.6 µM (inactive) with NCI/ADR-RES. Moreover, the GI50 is 23.3 µM (inactive) with OVCAR-3; 48.9 µM (inactive) with OVCAR-5; 15.5 µM (inactive) in the test on RXF 393; 18.8 µM (inactive) with SK-OV-3; > 100 µM (inactive) in the test with SNB-19; 35.8 µM (inactive) in the test with SW-620.
With `c1ccc(/N=C2\S/C(=N\C3CCCCC3)N(C3CCCCC3)\C2=N/c2ccccc2)cc1`, the GI50 in the test with A498 was > 100 µM (inactive); with CCRF-CEM, > 100 µM (inactive); in the test on COLO 205 it was > 100 µM (inactive); in the test on HCT-116, > 100 µM (inactive); with HCT-15, above 100 µM; in the test on HT-29, > 100 µM (inactive). Further, the GI50 was > 100 µM (inactive) with IGROV-1; > 100 µM (inactive) in the test on M14; 37.8 µM (inactive) with MOLT-4; > 100 µM (inactive) in the test with NCI-H23; > 100 µM (inactive) in the test on NCI-H460; > 100 µM (inactive) in the test with NCI-H522. Also, the GI50 in the test on NCI/ADR-RES, in the test on OVCAR-3, in the test on OVCAR-5, in the test with RXF 393, with SK-OV-3 and in the test with SNB-19 was > 100 µM (inactive) in each case.
As to `COc1ccc(C2C(Cl)C(=O)N2NC(=O)c2ccccc2O)cc1` (stereo not drawn), the GI50 in the test with CCRF-CEM, in the test with COLO 205, in the test with HCT-116, in the test on HT-29, with IGROV-1 and in the test with M14 was > 100 µM (inactive) each time. Moreover, the GI50 in the test with MOLT-4, in the test with NCI-H23, with NCI-H460, with NCI-H522, in the test with OVCAR-3 and in the test on RXF 393 was > 100 µM (inactive) throughout. The GI50 with SK-OV-3, in the test with SNB-19 and with SW-620 was > 100 µM (inactive) each time.
